According to patent publication US20240398825A1 (NANJING DELOVA BIOTECH CO. LTD., priority 2018, published 2024):
≈ marks a conversion by molar mass, not a printed value.

Assays:
[1] = cited from earlier work
[2] = cited from earlier work; remark: listed apart in the source
[3] = Solubility of meloxicam in PEG 200, PEG300 or PEG600; assay type: physicochemical; settings: 25 °C, organic solvent or mixture, thermodynamic from solid, read-out: Solubility (shaking at 25° C. for 24 h)
[4] = Solubility study of meloxicam in injectable solution; assay type: physicochemical; settings: aqueous with cosolvent or surfactant or cyclodextrin; PEG 400 300 mg/mL, pH 7.7-8.0 (NaOH/citric acid)
physchem = settings: 25 °C, water, thermodynamic from solid
[5] = Solubility of meloxicam in organic base or alkaline amino acid solutions (Comparative Example A4); assay type: physicochemical; settings: for solubility at 24 h: 25 °C, shaking at 25° C. for 24 h, n = 3

SMILES: Cc1cnc(NC(=O)C2=C(O)c3ccccc3S(=O)(=O)N2C)s1 [Meloxicam, 4-hydroxy-2-methyl-N-(5-methyl-2-thiazolyl)-2H-1,2-benzothiazine-3-carboxamide-1,1-dioxide]
- maximum solubility in pure PEG 400 ([1]; Zaira J. Cárdenas et al.): 9.2 mg/mL
- solubility of meloxicam in pure PEG 400 ([1]; found by Neelam Seeder et al.): 3.763 mg/mL
- solubility in water ([2]; 25° C.): 0.003414 mg/mL (≈ 0.00972 mM)
- solubility in chloroform, acetone and ethanol [2]: slightly soluble
- solubility at 24 h ([3]; Cosolvent PEG200): 3.6 mg/mL (≈ 10.2 mM)
- solubility at 24 h ([3]; Cosolvent PEG300): 2.81 mg/mL (≈ 8 mM)
- solubility at 24 h ([3]; Cosolvent PEG600): 3.18 mg/mL (≈ 9.05 mM)
- solubility [4]: 60 mg/mL (≈ 171 mM)
- solubility at 24 h (physchem): 0.02 mg/mL (≈ 0.0569 mM)
- solubility at 24 h ([5]; Tris solution, aqueous buffer, thermodynamic from solid, Tris 5 mg/mL): 5.54 mg/mL (≈ 15.8 mM)
- solubility at 24 h ([5]; Tris solution, aqueous buffer, thermodynamic from solid, Tris 10 mg/mL): 9.07 mg/mL (≈ 25.8 mM)
- solubility at 24 h ([5]; Tris solution, aqueous buffer, thermodynamic from solid, Tris 15 mg/mL): 11.4 mg/mL (≈ 32.4 mM)
- solubility at 24 h ([5]; Tris solution, aqueous buffer, thermodynamic from solid, Tris 20 mg/mL): 14.3 mg/mL (≈ 40.6 mM)
- solubility at 24 h ([5]; Tris solution, aqueous buffer, thermodynamic from solid, Tris 30 mg/mL): 18.3 mg/mL (≈ 52.1 mM)
- stability of the solutions in organic base or basic amino acid ([5]; after standing overnight at room temperature): Crystals were precipitated
- solubility at 24 h ([5]; arginine solution, aqueous buffer, thermodynamic from solid, Arginine 7 mg/mL): 11.2 mg/mL (≈ 32 mM)
- solubility at 24 h ([5]; arginine solution, aqueous buffer, thermodynamic from solid, Arginine 14 mg/mL): 11.6 mg/mL (≈ 32.9 mM)
- solubility at 24 h ([5]; arginine solution, aqueous buffer, thermodynamic from solid, Arginine 20 mg/mL): 11.6 mg/mL (≈ 33 mM)
- solubility at 24 h ([5]; arginine solution, aqueous buffer, thermodynamic from solid, Arginine 30 mg/mL): 12.8 mg/mL (≈ 36.4 mM)
- solubility at 24 h ([5]; arginine solution, aqueous buffer, thermodynamic from solid, Arginine 40 mg/mL): 14.2 mg/mL (≈ 40.5 mM)
- solubility ([5]; high concentration organic base or basic amino acid solution, aqueous buffer, thermodynamic from solid, solubility of meloxicam in a high concentration organic base or basic amino acid, high concentration organic base or basic amino acid): ≥ 10 mg/mL
- solubility at 24 h ([5]; lysine solution, aqueous buffer, thermodynamic from solid, Lysine 6 mg/mL): 10.5 mg/mL (≈ 29.7 mM)
- solubility at 24 h ([5]; lysine solution, aqueous buffer, thermodynamic from solid, Lysine 19 mg/mL): 29.8 mg/mL (≈ 84.7 mM)
- solubility at 24 h ([5]; lysine solution, aqueous buffer, thermodynamic from solid, Lysine 24 mg/mL): 35.9 mg/mL (≈ 102 mM)
- solubility at 24 h ([5]; meglumine solution, aqueous buffer, thermodynamic from solid, Meglumine 5 mg/mL): 8.01 mg/mL (≈ 22.8 mM)
- solubility at 24 h ([5]; meglumine solution, aqueous buffer, thermodynamic from solid, Meglumine 10 mg/mL): 17.8 mg/mL (≈ 50.7 mM)
- solubility at 24 h ([5]; meglumine solution, aqueous buffer, thermodynamic from solid, Meglumine 15 mg/mL): 24.6 mg/mL (≈ 70.1 mM)
